Test results published in patent publication US9376420B2 (YUHAN CORPORATION, priority 2012, dated 2016).

Target: T1, human LXRβ (Homo sapiens, UniProt P55055)
T1 construct: expressed in transfected cells; host or cells: HEK293 cells (ATCC CRL-1573), transient transfection with pFA-hLXRβ/GAL4 and pUAS
T1 sequence (P55055 222-460 limits assumed): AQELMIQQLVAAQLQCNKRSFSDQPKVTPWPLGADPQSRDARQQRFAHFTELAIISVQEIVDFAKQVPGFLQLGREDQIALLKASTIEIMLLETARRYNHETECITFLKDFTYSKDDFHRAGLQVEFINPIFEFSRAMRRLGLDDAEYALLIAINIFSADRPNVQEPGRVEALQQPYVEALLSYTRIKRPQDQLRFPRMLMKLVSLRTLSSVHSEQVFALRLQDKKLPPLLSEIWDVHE
Assay: Assay for Transcriptional Activity of LXRβ (GAL4-hLXRβ LBD luciferase reporter, transient transfection)
Type: cell-based
Details: HEK293 cells transfected with pFA-hLXRβ/GAL4 and pUAS, 24 hours; for Emax: fold value in comparison with the control (DMSO-treated group); for EC50: increase of transcriptional activity of LXRβ, average of three independent tests
Excerpt: The ligand-binding domain (LBD) cDNA of human LXRβ was inserted into an expression vector (pFA, Stratagene, USA) site adjacent to the yeast GAL4 transcription factor DNA binding domain to prepare an expression construct (pFA-hLXRβ/GAL4) (Willey et al., Genes & Development 9 1033-1045 (1995). The GAL4-responsive luciferase reporter plasmid, i.e., pUAS (Stratagene, USA), contained five copies of the GAL4 response element placed adjacent to the promoter and the luciferase reporter gene. The pFA-hLXRβ/GAL4 and pUAS were introduced into mammalian cells through transient transfection, followed by measuring the transcriptional activity of LXRβ.
HEK293 cells (human kidney cells, sATCC, CRL-1573) were incubated at a T-75 flask containing a DMEM supplemented with 10% fetal bovine serum (FBS) in a 37° C., until they reach about 70˜80% confluency. The culture media containing the cells was added to each well of a 96-well plate in a density of 5×10^4 cells per well. The pFA-hLXRβ/GAL4 and pUAS was transfected to the cells using a cationic-lipid transfection reagent (Lipofectamine™, Invitrogen), through culturing at 37° C. for 3 hours for transient transfection according to the manufacturer's instruction. The test compounds were dissolved in dimethyl sulfoxide (DMSO) in the concentrations of 50, 30, 10, 3, 1, 0.3, 0.1, 0.03, and 0.01 μM and then cells were treated with the prepared compound-containing solution (100 μl). The cells were incubated at 37° C. for 24 hours. After removal of the medium from each well, the lysis buffer (25 mM Tricine pH7.8, 2 mM DTT, 2 mM EGTA, 10% glycerol, 1% Triton X-100) was added with the amount of 20 μl per each well, and the plate was stirred at room temperature for 15 minutes. The luciferase reagent (prepared by adding 10 ml of the luciferase buffer (Promega) to 1 vial of the luciferase substrate (Promega)) was added to each well with the amount of 100 μl per well, followed by assaying with a luminometer according to the manufacturer's instruction.
The dose-response curve for calculating the EC50 values of the test compounds on the increase of transcriptional activity of LXRβ was prepared using the known LXR agonist (i.e., N-(2,2,2-trifluoro-ethyl)-N-[4-(2,2,2-trifluoro-1-hydroxy-1-trifluoromethyl-ethyl)-phenyl]-benzenesulfonamide) as a positive control and the vehicle (DMSO) as a negative control. The dose-response curve was produced from the 9-point curve having different concentrations at a 1/2 log unit. The EC50 value of a test compound, which is defined as a concentration for initiating the reaction corresponding to the half value between the Top value (i.e., the maximum value) and the Bottom value (baseline), was calculated according to the following equation. Y=Bottom+(Top-Bottom)/(1+10^((log EC50-X)*Hill Slope)).
In the above equation, Y is the observed value; X is the log concentration; Hill Slope is the slope of the curve; and Top and Bottom are the maximum value of test compound and the baseline value, respectively.
The following tables 1 and 2 show the EC50 values of the test compounds measured as in the above. In the tables 1 and 2, each EC50 value represents an average value obtained from three independent tests.

SMILES	Emax	EC50
COc1ccc(-c2ccc(C3CC(C(O)(C(F)(F)F)C(F)(F)F)=NN3c3ccccc3Cl)cc2)cn1 (stereo not shown) [Example 260, 1-(2-chloro-phenyl)-5-[4-(6-methoxy-pyridin-3-yl)-phenyl]-3-[di-(trifluoromethyl)-hydroxy-methyl]-4,5-dihydro-1H-pyrazole]	47 fold	1870 nM
CCOc1cccc(-c2ccc(C3CC(C(O)(C(F)(F)F)C(F)(F)F)=NN3c3ccc(F)cc3F)cc2)c1 (stereo not shown) [Example 337, 5-(3′-ethoxy-biphenyl-4-yl)-1-(2,4-difluoro-phenyl)-3-[di-(trifluoromethyl)-hydroxy-methyl]-4,5-dihydro-1H-pyrazole]	80 fold	1070 nM
CN(CCCS(=O)(=O)c1ccc(-c2cccc(C3CC(C(F)(F)C(F)(F)F)=NN3c3ccc(F)cc3F)c2)cc1)C(=O)OC(C)(C)C (stereo not shown) [Example 86, 5-{4′-[3-(N-BOC-N-methyl-amino)-propane-1-sulfonyl]-biphenyl-3-yl}-1-(2,4-difluoro-phenyl)-3-pentafluoroethyl-4,5-dihydro-1H-pyrazole]	45 fold	958 nM
OC(C1=NN(c2ccccc2Cl)C(c2ccc(-c3ccc(F)cc3)cc2F)C1)(C(F)(F)F)C(F)(F)F (stereo not shown) [Example 344, 1-(2-chloro-phenyl)-5-(3,4′-difluoro-biphenyl-4-yl)-3-[di-(trifluoromethyl)-hydroxy-methyl]-4,5-dihydro-1H-pyrazole]	53 fold	989 nM
CN(C)S(=O)(=O)N1CC=C(c2ccc(C3CC(C(O)(C(F)(F)F)C(F)(F)F)=NN3c3ccc(F)cc3F)cc2)CC1 (stereo not shown) [Example 401, 1-(2,4-difluoro-phenyl)-5-[4-(1-dimethylsulfamoyl-1,2,3,6-tetrahydropyridin-4-yl)-phenyl]-3-[di-(trifluoromethyl)-hydroxy-methyl]-4,5-dihydro-1H-pyrazole]	45 fold	785 nM
OC(C1=NN(c2ccccc2Cl)C(c2ccc(-c3ccc(F)cc3)cc2)C1)(C(F)(F)F)C(F)(F)F (stereo not shown) [Example 246, 1-(2-chloro-phenyl)-5-(4′-fluoro-biphenyl-4-yl)-3-[di-(trifluoromethyl)-hydroxy-methyl]-4,5-dihydro-1H-pyrazole]	47 fold	1410 nM
COc1ccc(-c2ccc(C3CC(C(O)(C(F)(F)F)C(F)(F)F)=NN3c3ccccc3Cl)cc2F)cn1 (stereo not shown) [Example 368, 1-(2-chloro-phenyl)-5-[3-fluoro-4-(6-methoxy-pyridin-3-yl)-phenyl]-3-[di-(trifluoromethyl)-hydroxy-methyl]-4,5-dihydro-1H-pyrazole]	57 fold	1920 nM
CS(=O)(=O)c1cccc(-c2ccc(C3CC(C(O)(C(F)(F)F)C(F)(F)F)=NN3c3ccccc3Cl)s2)c1 (stereo not shown) [Example 419, 1-(2-chloro-phenyl)-5-{5-[3-(methylsulfonyl)-phenyl]-thiophen-2-yl}-3-[di-(trifluoromethyl)-hydroxy-methyl]-4,5-dihydro-1H-pyrazole]	82 fold	–
COc1ccc(-c2cccc(C3CC(C(F)(F)C(F)(F)F)=NN3c3ccc(F)cc3F)c2)cn1 (stereo not shown) [Example 56, 1-(2,4-difluoro-phenyl)-5-[3-(6-methoxy-pyridin-3-yl)-phenyl]-3-pentafluoroethyl-4,5-dihydro-1H-pyrazole]	78 fold	2220 nM
CS(=O)(=O)N1CC=C(c2ccnc(C3CC(C(F)(F)C(F)(F)F)=NN3c3ccc(F)cc3F)c2)CC1 (stereo not shown) [Example 180, 1-(2,4-difluoro-phenyl)-5-[4-(1-methanesulfonyl-1,2,3,6-tetrahydropyridin-4-yl)-pyridin-2-yl]-3-pentafluoroethyl-4,5-dihydro-1H-pyrazole]	118 fold	513 nM
COc1ncc(-c2ccc(C3CC(C(O)(C(F)(F)F)C(F)(F)F)=NN3c3ccccc3Cl)cc2)c(OC)n1 (stereo not shown) [Example 280, 1-(2-chloro-phenyl)-5-[4-(2,4-dimethoxy-pyrimidin-5-yl)-phenyl]-3-[di-(trifluoromethyl)-hydroxy-methyl]-4,5-dihydro-1H-pyrazole]	81 fold	556 nM
COc1cccc(-c2ccc(C3CC(C(O)(C(F)(F)F)C(F)(F)F)=NN3c3ccccc3Cl)cn2)c1 (stereo not shown) [Example 349, 1-(2-chloro-phenyl)-5-[6-(3-methoxy-phenyl)-pyridin-3-yl]-3-[di-(trifluoromethyl)-hydroxy-methyl]-4,5-dihydro-1H-pyrazole]	60 fold	772 nM

Next, values leading:

Emax	EC50	SMILES
25 fold	60 nM	CS(=O)(=O)c1c(F)cc(-c2ccc(C3CC(C(O)(C(F)(F)F)C(F)(F)F)=NN3c3ccc(F)cc3F)cc2)cc1F (stereo not shown) [Example 388, 1-(2,4-difluoro-phenyl)-5-(3′,5′-difluoro-4′-methanesulfonyl-biphenyl-4-yl)-3-[di-(trifluoromethyl)-hydroxy-methyl]-4,5-dihydro-1H-pyrazole]
107 fold	8 nM	CC(=O)N1CC=C(c2cccc(C3CC(C(O)(C(F)(F)F)C(F)(F)F)=NN3c3ccccc3Cl)c2)CC1 (stereo not shown) [Example 231, 5-[3-(1-acetyl-1,2,3,6-tetrahydropyridin-4-yl)-phenyl]-1-(2-chloro-phenyl)-3-[di-(trifluoromethyl)-hydroxy-methyl]-4,5-dihydro-1H-pyrazole]
102 fold	295 nM	CNCCCS(=O)(=O)c1cccc(-c2ccc(C3CC(C(O)(C(F)(F)F)C(F)(F)F)=NN3c3ccccc3Cl)cc2)c1 (stereo not shown) [Example 334, 1-(2-chloro-phenyl)-5-{3′-[3-(methyl-amino)-propane-1-sulfonyl]-biphenyl-4-yl}-3-[di-(trifluoromethyl)-hydroxy-methyl]-4,5-dihydro-1H-pyrazole]
106 fold	373 nM	CS(=O)(=O)N1CC=C(c2ccc(C3CC(C(O)(C(F)(F)F)C(F)(F)F)=NN3c3ccccc3Cl)s2)CC1 (stereo not shown) [Example 418, 1-(2-chloro-phenyl)-5-[5-(1-methanesulfonyl-1,2,3,6-tetra hydropyridin-4-yl)-thiophen-2-yl]-3-[di-(trifluoromethyl)-hydroxy-methyl]-4,5-dihydro-1H-pyrazole]
77 fold	70 nM	O=C(CC1CCCC1)N1CC=C(c2cccc(C3CC(C(O)(C(F)(F)F)C(F)(F)F)=NN3c3ccccc3Cl)c2)CC1 (stereo not shown) [Example 232, 1-(2-chloro-phenyl)-5-{3-[1-(2-cyclopentyl-acetyl)-1,2,3,6-tetrahydropyridin-4-yl]-phenyl}-3-[di-(trifluoromethyl)-hydroxy-methyl]-4,5-dihydro-1H-pyrazole]
35 fold	170 nM	CN(CCO)S(=O)(=O)c1ccc(-c2ccc(C3CC(C(O)(C(F)(F)F)C(F)(F)F)=NN3c3ccc(F)cc3F)cc2)cc1 (stereo not shown) [Example 386, 1-(2,4-difluoro-phenyl)-5-{4′-[(2-hydroxy-ethyl)-methyl-sulfamoyl]-biphenyl-4-yl}-3-[di-(trifluoromethyl)-hydroxy-methyl]-4,5-dihydro-1H-pyrazole]
32 fold	320 nM	CS(=O)(=O)c1ccc(-c2ccc(C3CC(C(O)(C(F)(F)F)C(F)(F)F)=NN3c3ccccc3Cl)cc2)c(C(F)(F)F)c1 (stereo not shown) [Example 289, 1-(2-chloro-phenyl)-5-[4′-(methylsulfonyl)-2′-(trifluoromethyl)-biphenyl-4-yl]-3-[di-(trifluoromethyl)-hydroxy-methyl]-4,5-dihydro-1H-pyrazole]
